Our source for the IC50 values is ChEMBL document CHEMBL3044681, “Piperamides and their derivatives as potential anti-trypanosomal agents” (Med Chem Res, 2009).

pIC50: −log10 of the molar value.

The subject of the first assay is Trypanosoma cruzi. Briefly: Antitrypanosomal activity against epimastigote forms of Trypanosoma cruzi Y after 72 hr. The class given is functional, organism-based.
Conditions: not given; call rule not given here
`COc1cc(CCC(=O)N2CCCCC2=O)cc(OC)c1OC` [TETRAHYDROPIPLARTINE]: the IC50 entry was “Not Active”. With `COc1cc(/C=C/C(=O)O)cc(OC)c1OC` [SINAPIC ACID METHYL ETHER], the IC50 result was “Not Active”. Regarding `CCCCCCCCCC(=O)NCC(C)C` [TETRAHYDROPELLITORINE], the IC50 result is “Not Active”. With `CC(C)CNC(=O)/C=C/CCc1ccc2c(c1)OCO2` [4,5-DIHYDROPIPERLONGUMININE], the IC50 result is “Not Active”. For `O=C(CCCCc1ccc2c(c1)OCO2)N1CCCCC1` [TETRAHYDROPIPERINE], the IC50 result is “Not Active”. Regarding `O=C(O)/C=C/C=C/c1ccc2c(c1)OCO2` [PIPERIC ACID], the IC50 result was “Not Active”.

Consider `O=C(/C=C/CCc1ccc2c(c1)OCO2)N1CCCCC1` [PIPERANINE], for which the IC50 entry is “Not Active”. In the case of `COC(=O)/C=C/c1cc(OC)c(OC)c(OC)c1`, the IC50 result is reported as “Not Active”. The same measure, in the same setting: under `CC(C)CNC(=O)/C=C/c1ccc2c(c1)OCO2` [FOGARAMIDE] stands “Not Active”.

Staying with this assay, now noted: Trypanosoma cruzi, Y, 72 h; read-out: IC50.
`COc1cc(/C=C/C(=O)N2CCC=CC2=O)cc(OC)c1OC` [PIPLARTINE]: the pIC50 is 4.68. For the compound `COc1cc(/C=C\C(=O)N2CCC=CC2=O)cc(OC)c1OC` [(Z)-PIPLARTINE], the pIC50 was 4.98.

Consider `O=C(/C=C/C=C/c1ccc2c(c1)OCO2)N1CCCCC1` [PIPERINE], for which the pIC50 is 3.63. On to `CCCCC/C=C/C=C/C(=O)NCC(C)C` [PELLITORIN], for which the negative logarithm of the IC50 (pIC50) is 4.24.

By pIC50 is commonly meant the negative decadic logarithm of the IC50, by convention in mol/L.
